# Patent US20230060174A1, “PHARMACEUTICAL COMPOSITION OF TRICYCLIC PDE3/PDE4 DUAL INHIBITOR COMPOUND” (CHIA TAI TIANQING PHARMACEUTICAL GROUP CO., LTD., priority 2020, published 2023)
# Columns and labels:
# [1] = reported in literature; cited from earlier work
# [2] = reported in literature; cited from earlier work; remark: listed apart in the source
# PDE4 = details: reported in literature; cited from earlier work
# [3] = Stability study of solid crystalline form (HPLC total impurities); format: physicochemical
# Experimental: Experimental Example 1: Stability study of solid crystalline form of the compound of formula (I)
# High performance liquid chromatography (HPLC) • The chromatographic conditions of the HPLC method are seen in table below: • Chromatography column: Zorbax SB C-18, 4.6 mm×150 mm, 5 μm (PDS-HPLC-007) • Mobile phase A: 0.1% TFA in water • Mobile phase B: 100% ACN
# Preparation of sample: the sample was dissolved with a mixed solvent of acetonitrile and water (acetonitrile: water=50:50 (v/v))
# Solid stability stakeout method
# The stability of the compound in the following conditions was examined, and samples were taken at different time points to detect the content. About 5 mg of the crystalline form of the compound of formula (I) prepared in Example 2 was accurately weighted in duplicate, transferred to a dry and clean glass bottle, spread into a thin layer as test samples, and placed in experimental conditions of influential factors ((60° C.), (relative humidity 92.5%), illumination (total illumination of 1.2×10^6 Luxhr/near UV energy of 200 whr/m^2), (40° C., relative humidity 75%), or (60° C., relative humidity 75%)). The samples were covered with aluminum foils having holes, and thus completely exposed to the conditions. Sampling analysis was performed at 5 days, 10 days, 1 month, 2 months and 3 months. The samples were completely exposed to illumination (visible light of 1200000 Lux, UV of 200 W) at room temperature.
# [4] = Hygroscopicity study by dynamic vapor sorption (DVS); format: physicochemical; details: 25° C., RH 0%-90%-0%
# Experimental: Experimental Example 2: Hygroscopicity study of crystalline form of the compound of formula (I)
# Instrument model: SMS DVS Advantage
# Test conditions: the sample (10-20 mg, the crystalline form prepared in Example 3) was placed in DVS sample tray for testing.
# The detailed DVS parameters are as follows:
# Balancing: dm/dt=0.01%/min (shortest: 10 min, longest: 180 min)
# Drying: drying at 0% RH for 120 min
# RH (%) test gradient: 10%
# Range of RH (%) test gradient: 0%-90%-0%.
SMILES,Solubility [1],Plasma clearance [2],PDE4 inhibitory activity (PDE4),Total impurities % ([3]; 40° C. + 75% RH - 1 month) [%],Total impurities % ([3]; 40° C. + 75% RH - 2 months) [%],Total impurities % ([3]; 40° C. + 75% RH - 3 months) [%],Total impurities % ([3]; 40° C. + 75% RH - 10 days) [%],Total impurities % ([3]; 60° C. + 75% RH - 1 month) [%],Total impurities % ([3]; 60° C. + 75% RH - 10 days) [%],Total impurities % ([3]; 60° C. - 5 days) [%],Total impurities % ([3]; 60° C. - 10 days) [%],Total impurities % ([3]; 92.5% RH - 5 days) [%],Total impurities % ([3]; 92.5% RH - 10 days) [%],Total impurities % ([3]; Day 0) [%],"Total impurities % ([3]; Illumination (1.2×10^6 Lux hr, near UV 200 w hr/m^2)) [%]",Total impurities % ([3]; In the dark) [%],"Stability in the conditions of high temperature, high humidity or illumination ([3]; high temperature, high humidity or illumination, no increase of impurities)",Hygroscopicity (DVS) [4]
COc1cc2c(cc1OC)-c1c/c(=N\c3c(C)cc(C)cc3C)n(CCNC(N)=O)c(=O)n1CC2 [RPL554],poor,high,unsatisfactory,,,,,,,,,,,,,,,
CCOc1cc2c(cc1OC)-c1c/c(=N\c3c(C)cc(C)cc3C)n(CCNC(=O)c3c(O)nnn3C)c(=O)n1CC2,,,,0.10,0.08,0.09,0.10,0.10,0.10,0.10,0.11,0.11,0.10,0.11,0.10,0.11,good stability,small hygroscopicity
